The subject of one test is CD4+ T cells. Description: Flow cytometry of CD4+ T cell memory markers after de-differentiation interval. The class given is cell-based, human. On the procedure: FIGS. 9A-9C illustrate the effect of culture components during the de-differentiation interval on CD4^+ T cell expression of memory markers (at day 13 of culture). […] After the 3-day interval, media was exchanged to fresh X-Vivo 20 without inhibitors, high-level co-stimulation was provided (3:1 bead-to-T cell ratio), and the T cell growth cytokines IL-2 (100 IU/ml) and IL-7 (10 ng/ml) were added. […] All results are shown relative to the value of CD4^+ T cells at culture initiation (last column in FIGS. 9A-9C; “Day 0 Input Value”).
(In general: Flow cytometry measures light scatter and fluorescence of single cells or particles in a stream.)

Test [1] concerns human CD4+ and CD8+ T cells. Description: RNA expression of Th1 transcription factors and HIF-1-α after 3-day culture (Luminex Quantigene). To be noted: bead:T cell 1:3, temsirolimus 1 μM, Vitamin D 0.1 to 1.0 nM, relative to control culture. The class given is cell-based. Here is the method:
(§1) At the end of the de-differentiation interval, cells were harvested, RNA was isolated, and RNA expression analysis was performed by Luminex Quantigene method. All results shown represent relative RNA expression, with results normalized to a value of 1.0 for the Th1/Tc1 control culture.

Test [2] relates to human CD4+ and CD8+ T cells. The test can be described thus: RNA expression of T cell effector molecules after 3-day de-differentiation culture (Luminex Quantigene). Type of test: cell-based. To be noted: 3-day culture, bead:T cell 1:3, temsirolimus 1 μM, Vitamin D 0.1 or 1.0 nM; relative to control Th1/Tc1 culture. Here is the method:
as §1

The subject of the next test is CD8+ T cells. Description: Flow cytometry of CD8+ T cell memory markers after de-differentiation interval. To be noted: reducing or eliminating only temsirolimus from the initial culture interval (columns #5 and 6). Type of test: cell-based, human. Here is the method:
After the 3-day interval, media was exchanged to fresh X-Vivo 20 without inhibitors, high-level co-stimulation was provided (3:1 bead-to-T cell ratio), and the T cell growth cytokines IL-2 (100 IU/ml) and IL-7 (10 ng/ml) were added. T cells were subjected to flow cytometry for evaluation of co-expression of CD8^+, CD62L^+, and CCR7^+ markers (left panel; evaluated at day 10 of culture); and co-expression of CD8^+, CD62L^+, CCR7^+, and CD127^+ markers (right panel; evaluated at day 10 of culture). All results are shown relative to the value of CD8^+ T cells at culture initiation (last column in FIGS. 10A-10B; “Day 0 Input Value”).

In test [3] the test system is human CD4+ and CD8+ T cells. Description: RNA expression of de-differentiation transcription factors and IL-7 receptor alpha after 3-day culture (Luminex Quantigene). Type of test: cell-based. To be noted: bead:T cell 1:3, temsirolimus 1 μM, relative to control culture; for IL-7 receptor alpha RNA expression / KLF4 RNA expression / KLF10 RNA expression: Vitamin D 1.0 nM in combination; for Nanog RNA expression: Vitamin D 0.1 or 1.0 nM. On the procedure:
as §1

Test [4] has as its system human CD4+ and CD8+ T cells. Description: Western blot for Raptor, Rictor, p70S6K and SGK1 after 3-day de-differentiation culture. The class given is cell-based. To be noted: combination agent de-differentiation: temsirolimus 1 μM, Vitamin D 0.03 to 1.0 nM, Daclizumab 50 μg/ml; relative to control culture. The source says:
After the 3-day culture interval, the T cells were harvested, and protein was isolated and subjected to western blot analysis for the mTORC1 complex protein, Raptor; the mTORC2 complex protein, Rictor; the post-mTORC1 protein p70S6K; the post-mTORC2 protein, SGK1; and the housekeeping gene, GAPDH.
On the technique in general: In western blotting, separated proteins are transferred to a membrane and probed.

For test [5], the system named is human CD4+ and CD8+ T cells. Description: Cytokine secretion (Luminex) in extended hybrid Th2/TREG culture with temsirolimus or pemetrexed. Type of test: cell-based. To be noted: hybrid TREG-Th2 condition; temsirolimus 1.0 μM or pemetrexed 10 nM.
Text: (§2) FIGS. 21A-21D illustrates that extended culture of de-differentiated T cells in the hybrid Th2/TREG polarization condition results in the generation of T cells expressing with a predominant Th2 cytokine phenotype: IL-4, IL-5, and IL-13 secretion. […] At days 12, 20, and 32 of culture, the T cells were harvested, washed, and re-stimulated with 3/28 beads (3:1 ratio) for 24 hr; the resultant supernatant was harvested and tested for cytokine content by Luminex multi-analyte method. All results shown are expressed as cytokine level in pg per ml per 1×10^6 cells/ml/24 hr. The Th2 cytokine IL-10 was also evaluated: all values were less than 20 pg/ml per 1×10^6 cells/ml/24 hr.
as §2, with “22A-22D illustrate” for “21A-21D illustrates”, “IL-2, IFN-γ,” for “IL-4, IL-5,”, “GM-CSF” for “IL-13”, “inflammatory cytokines IL-17 and TNF-α were” for “Th2 cytokine IL-10 was”

In test [6] the test system is human CD4+ and CD8+ T cells. Description: T cell yield at day 13 after de-differentiation and re-stimulation without inhibitors. The class given is cell-based. To be noted: for preferable concentration for T cell yield: de-differentiation interval. Here is the method: After 10 days (13 days of total culture), the T cells were harvested, enumerated, and evaluated by flow cytometry. FIG. 8 illustrates the effect of culture components during the de-differentiation interval on subsequent T cell yield (at day 13 of culture). […] After the 3-day interval, media was exchanged to fresh X-Vivo 20 without inhibitors, high-level co-stimulation was provided (3:1 bead-to-T cell ratio), and the T cell growth cytokines IL-2 (100 IU/ml) and IL-7 (10 ng/ml) were added. At day 13 of culture, viable T cells were enumerated and the overall yield is shown relative to day 0 input number.

Test [7] deals with human CD4+ and CD8+ T cells. The test can be described thus: Western blot for mTORC1-related molecule Raptor after 3-day de-differentiation culture. Type of test: cell-based. The source says:
After the 3-day culture interval, the T cells were harvested, and protein was isolated and subjected to western blot analysis for the mTORC1 complex protein, Raptor, and the housekeeping gene, Actin.

Test [8] has as its system human CD4+ and CD8+ T cells. Description: Western blot for autophagy-related molecule p62 after 3-day de-differentiation culture. To be noted: 3-day culture, bead:T cell 1:3; temsirolimus 1.0 or 0.3 μM, Vitamin D 0.01-1.0 nM, Daclizumab 50 μg/ml as indicated. Type of test: cell-based.
Text: The level of autophagy can be determined in-part by the subsequent up-regulation of the autophagy substrate, p62, by western blot analysis.
After the 3-day culture interval, the T cells were harvested, and protein was isolated and subjected to western blot analysis for the autophagy-related gene, p62, and the housekeeping gene, Actin.
Test [9] has as its system human CD4+ and CD8+ T cells. Description: Cytokine secretion (Luminex) of de-differentiated T cells cultured in polarization-neutral media. Type of test: cell-based. To be noted: vitamin D 0.01 nM during de-differentiation relative to 0.1 nM. Here is the method:
FIGS. 11A-11D depict the inflammatory Th1/Th17 cytokine analysis of cultured de-differentiated T cells in polarization-neutral media. […] After 3-days, the de-differentiated T cells were co-stimulated (typical bead-to-T cell ratio of 3:1) in media supplemented with the T cell growth cytokines rhu IL-2 (100 IU/ml) and rhu IL-7 (10 ng/ml), which are not potent in terms of inducing T cell polarization. After 10 days in culture (total, day 13 of culture), the T cells were harvested, washed, and re-stimulated with 3/28 beads (3:1 ratio) for 24 hr; the resultant supernatant was harvested and tested for cytokine content by Luminex multi-analyte method. All results shown are expressed as cytokine level in pg per ml per 1×10^6 cells/ml/24 hr.
FIGS. 12A-12D depicts the IL-2 and Th2-type cytokine analysis of cultured de-differentiated T cells in polarization-neutral media. […] After 3-days, the de-differentiated T cells were co-stimulated (typical bead-to-T cell ratio of 3:1) in media supplemented with the T cell growth cytokines rhu IL-2 (100 IU/ml) and rhu IL-7 (10 ng/ml), which are not potent in terms of inducing T cell polarization. […] All results shown are expressed as cytokine level in pg per ml per 1×10^6 cells/ml/24 hr.

Test [10] relates to human CD4+ and CD8+ T cells. Description: Western blot for pro-apoptosis molecule BIM after 3-day de-differentiation culture. The class given is cell-based. To be noted: 3-day culture, bead:T cell 1:3; Vitamin D 0.1 nM, Daclizumab 50 μg/ml. An excerpt: After the 3-day culture interval, the T cells were harvested, and protein was isolated and subjected to western blot analysis for the pro-apoptosis-related gene, BIM, and the housekeeping gene, Actin.
To assess this, we measured BIM levels in the T cells cultured with a low-strength of co-stimulation (1:3 bead-to-T cell ratio) and presence of the various inhibitors.

`CO[C@H]1C[C@@H]2CC[C@@H](C)[C@@](O)(O2)C(=O)C(=O)N2CCCC[C@H]2C(=O)O[C@H]([C@H](C)C[C@@H]2CC[C@@H](OC(=O)C(C)(CO)CO)[C@H](OC)C2)CC(=O)[C@H](C)/C=C(\C)[C@@H](O)[C@@H](OC)C(=O)[C@H](C)C[C@H](C)/C=C/C=C/C=C/1C` [temsirolimus]: the “CD4+ CD45RA+ naïve T cell population” value in the test with CD4+ T cells (elimination of temsirolimus during the initial culture interval (culture #6)) is recorded as “depletion of the naïve T cell population”. Also, the “frequency of CD4+ triple-positive (CD62L, CCR7, CD127) T cells” value in the test on CD4+ T cells (reducing or eliminating only temsirolimus from the initial culture interval (columns #5 and 6)) is on record as “greatly reduced the frequency of triple-positive T cells”. In addition, in test [1], the “HIF-1-α RNA expression” value was “did not down-regulate”, the “STAT1 RNA expression” value is given as “acts alone to beneficially down-regulate” and the “T-BET RNA expression” value is given as “acts alone to beneficially down-regulate”. Moreover, in [2], the “Granzyme B RNA expression” value is listed as “reduction”, the “IFN-gamma RNA expression” value is recorded as “reduction” and the “IL-10 RNA expression” value was “reduction”. In the test with CD8+ T cells, the “frequency of CD8+ triple-positive (CD62L, CCR7, CD127) T cells” value is “greatly reduced the frequency of triple-positive T cells”. Moreover, in test [3], the “IL-7 receptor alpha RNA expression” value is “capable of up-regulating”, the “KLF4 RNA expression” value is “neither temsirolimus nor Vitamin D alone increased”, the “KLF10 RNA expression” value is on record as “acts alone to beneficially up-regulate” and the “Nanog RNA expression” value was “up-regulation”. Besides, the “Rictor expression (western blot, FIG. 6)” value in test [4] was “effective”. Further, in test [5], the IL-5 secretion result is “blunted” and the IL-13 secretion entry is listed as “blunted”. In test [6], the “preferable concentration for T cell yield” value came to 1.0 µM. Further, the “T cell yield at day 13 of culture” value in test [6] (temsirolimus concentration reduced to 0.1 μM (column #7)) was “reduced the resultant T cell yield”. Also, the “optimal dose for down-regulation of Raptor” value in test [7] (combination of Vitamin D plus temsirolimus) amounted to 1.0 µM. The Raptor expression result in test [7] (temsirolimus 0.3 μM (culture 9), versus 1.0 μM) is recorded as “higher levels of Raptor expression”.

With `C=C1/C(=C\C=C2/CCC[C@]3(C)[C@@H]([C@H](C)CCCC(C)(C)O)CC[C@@H]23)C[C@@H](O)C[C@@H]1O` [Vitamin D, Calcitriol], in test [1], the “HIF-1-α RNA expression” value is given as “did not down-regulate”, the “STAT1 RNA expression” value is reported as “acts alone to beneficially down-regulate” and the “T-BET RNA expression” value is on record as “acts alone to beneficially down-regulate”. In [8], the “p62 expression (western blot, autophagy marker)” value is reported as “increased p62 expression”. Also, in test [2], the “Granzyme B RNA expression” value is listed as “reduction”, the “IFN-gamma RNA expression” value is on record as “reduction” and the “IL-10 RNA expression” value is “reduction”. For the same molecule, in test [3], the “IL-7 receptor alpha RNA expression” value is “not Vitamin D alone”, the “KLF4 RNA expression” value was “neither temsirolimus nor Vitamin D alone increased”, the “KLF10 RNA expression” value is given as “does not act alone to up-regulate” and the “Nanog RNA expression” value is “does not act alone to up-regulate”. In test [9], the IFN-γ secretion entry is “somewhat higher levels” and the TNF-α secretion result is on record as “somewhat higher levels”. The “Rictor expression (western blot, FIG. 6)” value in test [4] is given as “effective”. Further, the “T cell yield at day 13 of culture” value in [6] (Vitamin D concentration increased to 1.0 nM (column #6)) is reported as “very low yield”. For the same molecule, in test [6] (Vitamin D concentration reduced to 0.01 nM (column #5)), the “T cell yield at day 13 of culture” value is reported as “very low yield”. Also, the “preferable concentration for T cell yield” value in test [6] worked out at 0.0001 µM. The Raptor expression result in test [7] (Vitamin D 0.3 nM (culture 7), versus 0.1 nM) was “higher level of Raptor expression”. Moreover, the Raptor inhibition entry in [7] (Vitamin D level reduced to 0.01 nM) was “sub-optimal Raptor inhibition”.

B1: Daclizumab: anti-IL-2 receptor monoclonal antibody (antibody, chains of the INN, looked up, V domains shown)
VH: QVQLVQSGAEVKKPGSSVKVSCKASGYTFTSYRMHWVRQAPGQGLEWIGYINPSTGYTEYNQKFKDKATITADESTNTAYMELSSLRSEDTAVYYCARGGGVFDYWGQGTLVTVSS
VL: DIQMTQSPSTLSASVGDRVTITCSASSSISYMHWYQQKPGKAPKLLIYTTSNLASGVPARFSGSGSGTEFTLTISSLQPDDFATYYCHQRSTYPLTFGQGTKVEVK
For B1, in test [4], the “Rictor expression (western blot, FIG. 6)” value is “did not abrogate”. Also, in test [10], the “BIM expression (western blot, normalized by actin)” value is listed as “beneficial role in suppressing”. Also, the “Raptor expression (western blot, normalized by actin)” value in test [7] (3-day culture, bead:T cell 1:3, temsirolimus 1.0 μM, Vitamin D 0.1 nM, Daclizumab 50 μg/ml) was “beneficial role in suppressing”.

These data come from US12239647B2, “ALS treatment using induced regulatory T (iTREG) cells” (RAPA THERAPEUTICS, LLC, priority 2018, dated 2025).
